In patent US20170002360A1, “PROTEIN PHOSPHATASE INHIBITOR” (priority 2013, published 2017):

Columns and labels:
[1] = system: DU145 prostate cancer wild type cell line; assay: CPT titration, loss of viability, wild-type prostate cancer cells; type: cell-based; conditions: varying concentrations of CPT; 48 hrs post CPT treatment
Experimental: FIG. 6A: Camptothecin (CPT) treatment of DU145 prostate cancer wild-type cell line. CPT was titrated on DU145 wild-type cells and 48 hrs post CPT treatment, the cells were examined for the loss of viability compared to control (untreated)
(§1) In addition to the described experiments, the effect of inhibiting the phosphatase PPEF1 on characterized published drug resistant cell lines was assessed. The resistant cell lines used in these experiments were DU145/RCO.1 cells, which were kindly provided by Prof. Dr. Yves Pommier from the Laboratory of Molecular Pharmacology, Center of Cancer research, National Cancer institute, Bethesda, USA. These DU145/RCO.1 cells and their resistance to CPT) have been described Urasaki et al. (Cancer Research 61, 2001, pp. 1964-1969). Initially, DU145 prostate cancer wild type cell line was treated with varying concentrations of camptothecin (CPT).

DU145/RCO.1 cells = assay: CPT titration, loss of viability, CPT resistant cells with or without PPEF1 SiRNA; type: cell-based; conditions: 48 hrs post CPT treatment
Text: (§2) FIG. 6B: Camptothecin treatment of CPT approved resistant cells. CPT was titrated on DU145/RCO.1 cells reported to be resistant to CPT. 48 hrs post CPT treatment, the cells were examined for the loss of viability compared to control (untreated)
as §2, with “6C:” for “6B:”, “cells after PPEF1 inhibition. 24 hrs post PPEF1 SiRNA treatment,” for “cells.”
as §1
The results of these experiments can be seen in FIG. 6c.

Row | Compound | viability [1] | viability (DU145/RCO.1 cells; varying concentrations of CPT alone) | sensitivity to CPT / viability (DU145/RCO.1 cells; CPT titrated 24 hrs post PPEF1 SiRNA treatment)
1 | CC[C@@]1(O)C(=O)OCc2c1cc1n(c2=O)Cc2cc3ccccc3nc2-1 [CPT, camptothecin] | greatly reduced | did not significantly change | 
2 | Example 2: SiRNA oligonucleotide targeting PPEF1, CAGTTCGAATCTGGTAAACAT, obtained from Qiagen (chemistry not given here) |  |  | became sensitive and lost viability
